Values joined by “and” are separate entries in the source; they are usually repeats but may differ in a detail not shown here. Equal values may be shown once.

Data set [1] has as its target CXCR4 chomokin receptor (Homo sapiens, UniProt P61073). The conditions noted are these: read-out: IC50, binds to and inhibits the CXCR4 receptor; cited from earlier work.
In data set [2] the test system is colony forming cells (CFCs) in mobilized peripheral blood. Kind of data set: CFC assay for stem cell mobilization activity in mice. Type of data set: in vivo, C57/B6 mice. To be noted: peripheral blood 3 hours after drug treatment; AMD3100 1.0 mg/kg, Tacrolimus 0.1 mg/kg; vs saline (FIG. 1). An excerpt: Hematopoietic colony-forming cell (CFC) assays have been used extensively for research and clinical applications in humans and animal models as a way of quantifying and assessing the hematopoietic progenitor content of a cell sample. The stem cell mobilization activity can be measured by using CFC assays in mobilized peripheral blood samples. CFCs are able to divide and differentiate into a colony of more mature cells that can be detected by light microscopy. This allows for the quantification of multipotent stem cell lineages mobilized by pharmaceutical agents.
C57/B6 mice were divided into four treatment groups: 1) control group treated with saline; 2) AMD3100 group (1.0 mg/kg); (3) Tacrolimus group treated with
low-dose (0.1 mg/kg); and (4) AF Combination (containing AMD3100 and Tacrolimus). […] Viable PBMCs were counted and mixed with Methocult GF methylcellulose medium (StemCell Technologies, Vancouver, BC, Canada; Cat.: 03444) containing 100 Uml penicillin and 100 μg/ml streptomycin to give a final density of 1×10^5 viable PBMCs/1.5 ml of medium. […] Colony-forming units (CFUs) were counted using an inverted microscope (Carl Zeiss Microscopy, Thornwood, N.Y.) at ×4. The number of CFUs was determined by dividing the number of viable cells per milliliter by the number of plated cells per well and multiplying by the number of counted CFUs/well.

For data set [3], the system named is renal allograft rejection. Kind of data set: mismatched kidney transplantation in miniature swine. The class given is in vivo. The conditions noted are these: for Creatinine (serum): at time of death; for effect on survival: drug alone; for Survival: one animal per value; for post-operative day of death or euthanasia: single perioperative course. An excerpt: Animals—SLA-identified donor and recipient swine (weight 50-80 kg) were obtained from Transplantation Biology Research Center of Massachusetts General Hospital, Boston, Mass. The immunogenetic characteristics of these swine have been described previously (30). Two-haplotype full MHC class I and class II mismatched donors and recipients were used for kidney transplantation. […] Institutional review board (Animal Care and Use Committee) approval was obtained for this study. All animal care and procedures were in compliance with the “Principles of Laboratory Animal Care” formulated by the National Society of Medical Research and the “Guide for the Care and Use of Laboratory Animals” prepared by the Institute of Laboratory Animal Resources, National Research Council, and published by the National Academies Press, revised 2011.
Kidney transplantation—The surgical procedure used for kidney transplantation has been described in Kirkman R L, et al. Transplantation in miniature swine. VI. Factors influencing survival of renal allografts. Transplantation 1979; 28: 18-23, the entire disclosure of which is herein incorporated by reference. Briefly, donor kidneys were flushed and persevered in cold saline for 3-6 h before reperfusion. The recipients underwent bilateral nephrectomy. […] The kidney transplantation was completed with a vesicoureteral anastomosis. An indwelling Silastic central venous catheter was placed surgically into the external or internal jugular vein. The catheter facilitated frequent blood sampling for in vitro assays and for monitoring of renal function and whole-blood Tacrolimus levels.
Rejection monitoring—Kidney function was monitored by serial serum creatinine levels. Serum creatinine and blood urea nitrogen levels were analyzed in the Phenotyping Laboratory of the Department of Comparative Medicine at Johns Hopkins. Biopsies were performed on transplant recipients using needle core biopsy via an open or percutaneous ultrasound-guided approach. Renal allograft rejection was defined as sustained rise in serum creatinine to >10 mg/dL or anuria (normal laboratory value for swine serum creatinine is 1-3 mg/dL).
Histopathological examination—Core needle biopsies or wedge biopsies were performed on renal allografts. Scoring of acute rejection was based on the Banff classification; see, e.g., Solez K, et al. Banff 07 classification of renal allograft pathology: Updates and future directions. Am J Transplant 2008; 8: 753-760, the entire disclosure of which is herein incorporated by reference. Masson trichrome staining was done according to standard protocols.
SLA-identified and -mismatched inbred miniature swine were subjected to bilateral nephrectomy and transplantation (FIG. 1B) as described in Sachs D H, et al. Transplantation in miniature swine. I. Fixation of the major histocompatibility complex. Transplantation 1976; 22: 559-567, the entire disclosure of which is herein incorporated by reference. […] VI. Factors influencing survival of renal allografts. Transplantation 1979; 28: 18-23, supra. Five experimental treatment groups were defined as follows, and each group received subcutaneous injections on days 0, 2, 4, 6, and 8 post-transplantation: (1) saline (n=1); (2) low-dose (0.03 mg/kg) Tacrolimus alone (n=3); (3) AMD3100 1 mg/kg alone (n=3); (4) AF Combination treatment (AMD3100 1 mg/kg and Tacrolimus 0.03 mg/kg) (n=1); and (5) AF Combination treatment as in group 4 but with repeat of the 8-day course at 1, 2, and 3 months post-transplantation.

Data set [4] relates to cell migration stimulated by CXCL12. To be noted: cited from earlier work.
Data set [5] can be described thus: solubility of Tacrolimus powder in water solutions. Type of data set: physicochemical.

CXCR4 chomokin receptor, sequence (P61073 whole entry): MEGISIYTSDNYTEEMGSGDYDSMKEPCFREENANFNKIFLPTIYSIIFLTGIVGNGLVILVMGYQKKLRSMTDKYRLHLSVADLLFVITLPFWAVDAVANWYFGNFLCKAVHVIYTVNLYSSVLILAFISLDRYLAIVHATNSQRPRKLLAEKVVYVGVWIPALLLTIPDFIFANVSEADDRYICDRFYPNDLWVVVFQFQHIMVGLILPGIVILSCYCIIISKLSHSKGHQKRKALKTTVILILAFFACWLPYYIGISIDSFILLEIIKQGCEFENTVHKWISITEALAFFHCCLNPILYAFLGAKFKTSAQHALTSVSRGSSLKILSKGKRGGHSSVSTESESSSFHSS

For 4F-benzoyl-TN14003 [BKT140], in data set [1], the IC50 was around 1 nM.
`c1cc(CN2CCCNCCNCCCNCC2)ccc1CN1CCCNCCNCCCNCC1` [AMD3100, 1,1′-[1,4-phenylenebis(methylene)]bis¬1,4,8,11-tetraazacyclo-tetradecane]: in data set [2], the “number of colony forming cells (CFCs)” value is “significantly increased”. In addition, the “Creatinine (serum)” value in data set [3] (no re-treatment, listed as AMD3100 only) was 22.3 mg/dL and 17.3 mg/dL and 26.4 mg/dL. In data set [3], the effect on survival entry is given as “no prolongation of survival”; the “post-operative day of death or euthanasia” value is 9 POD and 10 POD and 16 POD. Further, in data set [3] (no re-treatment, s.c. days 0, 2, 4, 6, 8, listed as AMD3100 only), the Survival is 10 days and 16 days and 9 days. Moreover, in data set [4], the IC50 is 51 ± 17 nM.
As for `C=CC[C@@H]1/C=C(\C)C[C@H](C)C[C@H](OC)[C@H]2O[C@@](O)(C(=O)C(=O)N3CCCC[C@H]3C(=O)O[C@H](/C(C)=C/[C@@H]3CC[C@@H](O)[C@H](OC)C3)[C@H](C)[C@@H](O)CC1=O)[C@H](C)C[C@@H]2OC` [Tacrolimus], the “solubility in water solutions (e.g., saline)” value in data set [5] is on record as “poor solubility”. For the same molecule, the “number of colony forming cells (CFCs)” value in data set [2] is given as “significantly increased”. Further, the Survival in data set [3] (Re-Treatment Yes) was 56 days; in data set [3] (no re-treatment, s.c. days 0, 2, 4, 6, 8, listed as Tacro only) it was 28 days and 27 days. The serum creatinine level in data set [3] (animal 21343, POD 40 after repeat dosing) is on record as 8.3 mg/dL; in data set [3] (animal 21343, POD 56) it was 9.8 mg/dL; in data set [3] (animal 21343, before effect of repeat dosing at 1 month), 12.3 mg/dL. In addition, the “Creatinine (serum)” value is 9.8 mg/dL in data set [3] (Re-Treatment Yes); 11.5 mg/dL and 9.9 mg/dL in data set [3] (no re-treatment, listed as Tacro only). Besides, the effect on survival entry in data set [3] was “prolongation of survival”; in data set [3] (listed as FK506) it was “prolonged survival but was ineffective against late rejection”. Also, the “post-operative day of death” value in data set [3] (redosing at 30 days) is 56 POD. For the same molecule, the “post-operative day of death or euthanasia” value in data set [3] is 27 POD and 28 POD.

Usually IC50 stands for the concentration needed to halve the response being measured.
